Consider 14 molecules from ChEMBL document CHEMBL3639182, “Nitrogen containing heteroaryl compounds” (2014).

As usually defined, the IC50 is the point on the concentration scale where inhibition reaches its midpoint.

For the test, the target named is cAMP and cAMP-inhibited cGMP 3',5'-cyclic phosphodiesterase 10A (Homo sapiens, UniProt Q9Y233). The experiment in a line: Scintillation Proximity Assay : PDE10 activity of the compounds of the present invention was determined using a Scintillation Proximity Assay (SPA)-based method similar to the one previously described (Fawcett, L. et al., Proc Natl Acad Sci USA (2000) 97(7):3702-3707). The human PDE10A full length assay was performed in 96-well micro titer plates. The reaction mixture of 50 μl contained 20 mM HEPES pH=7.5/10 mM MgCl2/0.05 mg/ml BSA (Sigma cat. # A-7906), 50 nM cGMP (Sigma, cat. # G6129) and 50 nM [3H]-cGMP (GE Healthcare, cat. # TRK392 S.A. 13.2 Ci/mmol), 3.75 ng/well PDE10A enzyme (Enzo Life Science, Lausen, Switzerland cat #SE-534) with or without a specific test compound. (Scintillation proximity formats need no separation of bound from free tracer.)
cAMP and cAMP-inhibited cGMP 3',5'-cyclic phosphodiesterase 10A, sequence (Q9Y233 whole entry): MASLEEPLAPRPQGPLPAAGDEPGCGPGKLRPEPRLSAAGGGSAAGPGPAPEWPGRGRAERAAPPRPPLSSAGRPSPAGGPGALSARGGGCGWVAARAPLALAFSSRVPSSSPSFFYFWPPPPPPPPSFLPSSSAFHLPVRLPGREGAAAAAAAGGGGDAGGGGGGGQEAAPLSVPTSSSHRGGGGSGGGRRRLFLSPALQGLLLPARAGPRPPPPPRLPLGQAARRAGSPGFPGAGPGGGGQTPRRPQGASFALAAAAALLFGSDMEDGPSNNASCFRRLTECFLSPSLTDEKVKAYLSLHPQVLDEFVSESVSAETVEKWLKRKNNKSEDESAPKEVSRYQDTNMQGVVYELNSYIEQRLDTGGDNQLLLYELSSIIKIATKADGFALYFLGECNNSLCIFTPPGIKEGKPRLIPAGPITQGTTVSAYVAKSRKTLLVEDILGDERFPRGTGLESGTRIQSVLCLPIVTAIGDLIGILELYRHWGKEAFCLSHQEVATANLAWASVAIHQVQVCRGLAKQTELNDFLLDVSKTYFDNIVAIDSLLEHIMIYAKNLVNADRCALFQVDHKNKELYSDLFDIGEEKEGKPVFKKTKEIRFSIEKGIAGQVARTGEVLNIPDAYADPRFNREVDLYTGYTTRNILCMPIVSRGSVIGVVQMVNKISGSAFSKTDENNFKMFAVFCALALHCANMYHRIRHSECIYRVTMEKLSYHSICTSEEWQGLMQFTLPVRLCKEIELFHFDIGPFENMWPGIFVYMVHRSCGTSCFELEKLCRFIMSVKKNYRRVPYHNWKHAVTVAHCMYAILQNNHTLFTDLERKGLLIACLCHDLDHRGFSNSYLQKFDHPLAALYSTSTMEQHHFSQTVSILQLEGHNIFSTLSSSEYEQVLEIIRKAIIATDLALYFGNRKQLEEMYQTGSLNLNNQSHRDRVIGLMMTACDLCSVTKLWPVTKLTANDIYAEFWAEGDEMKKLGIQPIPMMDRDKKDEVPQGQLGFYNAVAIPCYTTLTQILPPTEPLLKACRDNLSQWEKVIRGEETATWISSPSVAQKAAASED

As for `Cn1ncc(NC(=O)c2nc(C3CC3)cnc2Nc2cncnc2)c1C(=O)NC1COC1`, the IC50 was determined as 6.6 nM.

For the molecule `CC(CO)CNC(=O)c1c(NC(=O)c2nc(C3CC3)cnc2Nc2cncnc2)cnn1C` (centres undefined), the IC50 is 1.5 nM.

In the case of `CN(C)C(=O)c1c(NC(=O)c2nc(C3CC3)cnc2Nc2cncnc2)cnn1C`, the IC50 amounted to 32.2 nM.

Regarding `CNC(=O)c1c(NC(=O)c2nc(C3CC3)cnc2Nc2cncnc2)cnn1CC(F)(F)F`, the IC50 is 27 nM.

On to `COCc1ccc(NC(=O)c2nc(C3CC3)cnc2Nc2cncnc2)c(C(=O)NCC(C)(C)O)n1`, for which the IC50 worked out at 0.5 nM.

`COCCOc1ccc(NC(=O)c2nc(C3CC3)cnc2Nc2cncnc2)c(C(=O)NCC(C)(C)O)c1`: the IC50 is 0.7 nM.

Turning to `CN(C(=O)c1ncccc1NC(=O)c1nc(C2CC2)cnc1Nc1cncnc1)C1CCOCC1`, the IC50 amounted to 425 nM.

Consider `CN(CC(F)(F)F)C(=O)c1ncccc1NC(=O)c1nc(C2CC2)cnc1Nc1cncnc1`, for which the IC50 was determined as 8.1 nM.

Turning to `CN(C(=O)c1ncccc1NC(=O)c1nc(C2CC2)cnc1Nc1cncnc1)C1CC1`, the IC50 was 26.8 nM.

Turning to `CC1CCCCN1C(=O)c1ncccc1NC(=O)c1nc(C2CC2)cnc1Nc1cncnc1` (centres undefined), the IC50 was 15.9 nM.

On to `CC(C)(O)CNC(=O)c1cc(C#N)ccc1NC(=O)c1nc(C2CC2)cnc1Nc1cncnc1`, for which the IC50 worked out at 0.7 nM.

Take `CNC(=O)c1cc(NC(C)=O)ccc1NC(=O)c1nc(C2CC2)cnc1Nc1cncnc1`: the IC50 was found to be 0.4 nM.

With `CNC(=O)c1nc(C)ncc1NC(=O)c1nc(C2CC2)cnc1Nc1cncnc1`, the IC50 was determined as 19.3 nM.

Consider `CNC(=O)c1ccc(F)c(F)c1NC(=O)c1nc(C2CC2)cnc1Nc1cncnc1`, for which the IC50 is 1.8 nM.
